In ChEMBL document CHEMBL5038606 (J Med Chem, 2022):
≈ marks a conversion by molar mass, not a printed value. Calls of active or inactive are those of the source. The calls are words filed in the database; no cut-off is given here.

Columns and labels:
Oryctolagus cuniculus = assay: Antithrombotic activity in New Zealand White rabbit model of electrically-induced carotid artery thrombosis assessed as inhibition of thrombosis formation by measuring increase in bleeding time administered as iv bolus dose and subsequently administered as iv infusion 30 mins prior to injury; format: functional, organism-based
Coagulation factor XI = Coagulation factor XI (Homo sapiens, UniProt P03951); assay: Binding affinity to human coagulation factor 11a using L-Pyroglutamyl-L-prolyl-L-arginine p-Nitroaniline as substrate assessed as inhibition constant measured upto 120 mins by spectrophotometric analysis
Sequence of Coagulation factor XI (P03951 19-387 limits assumed): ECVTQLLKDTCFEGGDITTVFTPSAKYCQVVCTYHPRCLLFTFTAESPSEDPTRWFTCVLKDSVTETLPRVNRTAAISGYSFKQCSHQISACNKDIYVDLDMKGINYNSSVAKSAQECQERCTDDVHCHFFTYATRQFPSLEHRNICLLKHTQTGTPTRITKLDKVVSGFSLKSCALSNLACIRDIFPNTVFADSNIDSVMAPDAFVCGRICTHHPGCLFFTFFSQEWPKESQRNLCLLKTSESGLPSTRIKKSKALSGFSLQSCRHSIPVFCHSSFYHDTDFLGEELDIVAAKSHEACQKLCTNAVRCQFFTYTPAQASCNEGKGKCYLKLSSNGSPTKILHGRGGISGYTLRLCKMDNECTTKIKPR
Sequence of Coagulation factor XI (P03951 388-625 limits assumed): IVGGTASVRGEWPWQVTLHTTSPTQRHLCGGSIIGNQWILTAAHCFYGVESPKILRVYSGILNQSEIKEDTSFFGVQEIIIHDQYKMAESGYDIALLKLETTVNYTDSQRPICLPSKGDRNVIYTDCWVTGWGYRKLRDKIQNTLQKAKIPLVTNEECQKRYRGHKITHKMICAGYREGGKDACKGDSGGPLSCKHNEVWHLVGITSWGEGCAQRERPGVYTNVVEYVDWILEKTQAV

Plasma = assay: Anticoagulant activity in human plasma assessed as activated partial thromboplastin time; format: functional
[1] = Metabolic stability in human liver microsomes assessed as half life; format: ADME, Microsome
[2] = Apparent permeability across apical to basolateral side in human Caco2 cells; format: ADME, cell-based; settings: Caco-2, read-out: permeability
[3] = Metabolic stability in Sprague-Dawley rat liver microsomes assessed as half life; format: ADME, Microsome; set-up: dose or concentration left out as unconfirmed
[4] = Oral bioavailability in Sprague-Dawley rat at 1.10 mg/kg; format: ADME, organism-based; settings: in vivo, dose 1.1 mg/kg
[5] = Protein binding in Sprague-Dawley rat plasma assessed as bound fraction; format: ADME, cell-free; set-up: dose or concentration left out as unconfirmed
[6] = Half life in Sprague-Dawley rat at 1.10 mg/kg, po or 0.55 mg/kg, iv; format: ADME, organism-based; settings: in vivo, dose 1.1 mg/kg
[7] = Clearance in Sprague-Dawley rat at 1.10 mg/kg, po or 0.55 mg/kg, iv; format: ADME, organism-based; settings: in vivo, dose 1.1 mg/kg
[8] = Volume of distribution at steady state in Sprague-Dawley rat at 1.10 mg/kg, po or 0.55 mg/kg, iv; format: ADME, organism-based; settings: in vivo, dose 1.1 mg/kg, read-out: Vdss
[9] = AUC in Sprague-Dawley rat at 1.10 mg/kg, po; format: ADME, organism-based; set-up: dose 1.1 mg/kg; settings: in vivo, 1.1 mg/kg
[10] = Clearance in Sprague-Dawley rat at 1.06 mg/kg, po or 0.53 mg/kg, iv; format: ADME, organism-based; settings: in vivo
[11] = AUC in Sprague-Dawley rat at 1.06 mg/kg, po; format: ADME, organism-based; set-up: dose 1.06 mg/kg; settings: in vivo
[12] = Volume of distribution at steady state in Sprague-Dawley rat at 1.06 mg/kg, po or 0.53 mg/kg, iv; format: ADME, organism-based; settings: in vivo, read-out: Vdss
[13] = Oral bioavailability in Sprague-Dawley rat at 1.06 mg/kg; format: ADME, organism-based; settings: in vivo
[14] = Half life in Sprague-Dawley rat at 1.06 mg/kg, po or 0.53 mg/kg, iv; format: ADME, organism-based; settings: in vivo
[15] = Volume of distribution at steady state in cynomolgus monkey at 1.50 mg/kg, po or 0.50 mg/kg, iv; format: ADME, organism-based, Macaca fascicularis; settings: in vivo, dose 1.5 mg/kg, read-out: Vdss
Trypsin = Trypsin (Homo sapiens, UniProt P07477+P07478+P35030); assay: Binding affinity to human trypsin assessed as inhibition constant using N-Benzoyl-L-isoleucyl-L-glutamyl-glycyl-Larginine p-Nitroaniline and its gamma glutamyl methyl ester as substrate measured upto 120 mins by spectrophotometric analysis; format: protein assay
[16] = Oral bioavailability in cynomolgus monkey at 1.50 mg/kg; format: ADME, organism-based, Macaca fascicularis; settings: in vivo, dose 1.5 mg/kg
Chymase = Chymase (Homo sapiens, UniProt P23946); assay: Binding affinity to human mast cell chymase assessed as inhibition constant using Succinyl-L-alanyl-L-alanyl-L-prolyl-L phenylalanine p-Nitroaniline as substrate measured upto 120 mins by spectrophotometric analysis
Sequence of Chymase (P23946 whole entry): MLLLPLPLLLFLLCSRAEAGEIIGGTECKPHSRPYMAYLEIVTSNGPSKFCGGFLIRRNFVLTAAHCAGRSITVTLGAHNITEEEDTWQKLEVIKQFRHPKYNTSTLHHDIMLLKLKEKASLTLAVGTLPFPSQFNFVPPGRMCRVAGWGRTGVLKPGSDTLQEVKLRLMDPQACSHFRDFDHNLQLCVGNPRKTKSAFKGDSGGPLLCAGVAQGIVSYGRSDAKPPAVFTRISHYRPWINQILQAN

[17] = Half life in cynomolgus monkey at 1.50 mg/kg, po or 0.50 mg/kg, iv; format: ADME, organism-based, Macaca fascicularis; settings: in vivo, dose 1.5 mg/kg
[18] = molecular target: Tissue-type plasminogen activator (Homo sapiens, UniProt P00750); assay: Binding affinity to human tissue type plasminogen assessed as inhibition constant using Methanesulfonyl-D-Cyclohexylalanyl-glycylarginine p-Nitroaniline as substrate measured upto 120 mins by spectrophotometric analysis
[19] = molecular target: Urokinase-type plasminogen activator (Homo sapiens, UniProt P00749); assay: Binding affinity to human urokinase assessed as inhibition constant using L-Pyroglutamyl-glycyl-L-arginine p-Nitroaniline as substrate upto 120 mins by spectrophotometric analysis
Coagulation factor VII = Coagulation factor VII (Homo sapiens, UniProt P08709); assay: Binding affinity to recombinant human coagulation factor 7a assessed as inhibition constant using N-alpha-Benzyloxycarbonyl-D-arginyl-glycyl-Larginine p-Nitroaniline as substrate measured upto 120 mins by coupled enzyme assay
Sequence of Coagulation factor VII (P08709 61-212 limits assumed): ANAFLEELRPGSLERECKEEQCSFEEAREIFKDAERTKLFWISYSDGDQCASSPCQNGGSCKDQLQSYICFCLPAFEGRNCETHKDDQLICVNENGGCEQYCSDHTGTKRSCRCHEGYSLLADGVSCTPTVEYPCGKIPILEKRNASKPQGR
Sequence of Coagulation factor VII (P08709 213-466 limits assumed): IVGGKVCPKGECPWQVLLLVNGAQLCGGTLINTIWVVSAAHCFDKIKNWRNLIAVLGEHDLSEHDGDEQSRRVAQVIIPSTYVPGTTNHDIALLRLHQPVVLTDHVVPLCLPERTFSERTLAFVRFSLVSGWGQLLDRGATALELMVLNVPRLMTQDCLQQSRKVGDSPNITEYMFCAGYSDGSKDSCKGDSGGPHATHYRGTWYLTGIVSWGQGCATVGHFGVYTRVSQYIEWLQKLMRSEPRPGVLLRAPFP

Myeloblastin = Myeloblastin (Homo sapiens, UniProt P24158); assay: Binding affinity to human neutrophil proteinase 3 assessed as inhibition constant using Methoxysuccinyl-L-alanyl-L-alanyl-L-prolylL-valine p-Nitroaniline as substrate measured upto 120 mins by spectrophotometric analysis
Sequence of Myeloblastin (P24158 whole entry): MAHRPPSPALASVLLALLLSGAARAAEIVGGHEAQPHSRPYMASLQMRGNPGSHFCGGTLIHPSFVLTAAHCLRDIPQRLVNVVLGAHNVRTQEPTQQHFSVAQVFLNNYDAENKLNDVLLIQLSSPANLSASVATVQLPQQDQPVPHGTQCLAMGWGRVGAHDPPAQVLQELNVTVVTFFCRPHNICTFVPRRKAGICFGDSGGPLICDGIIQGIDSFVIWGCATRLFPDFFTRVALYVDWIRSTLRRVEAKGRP

Coagulation factor X = Coagulation factor X (Homo sapiens, UniProt P00742); assay: Binding affinity to human coagulation factor 10a assessed as inhibition constant using N-Benzoyl-L-isoleucyl-L-glutamyl-glycyl-Larginine p-Nitroaniline and its gamma glutamyl methyl ester as substrate measured upto 120 mins by spectrophotometric analysis
Sequence of Coagulation factor X (P00742 41-179 limits assumed): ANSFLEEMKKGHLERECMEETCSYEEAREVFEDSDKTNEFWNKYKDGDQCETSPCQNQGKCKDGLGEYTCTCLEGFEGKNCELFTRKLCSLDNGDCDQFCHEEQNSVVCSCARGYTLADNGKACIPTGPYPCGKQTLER
Sequence of Coagulation factor X (P00742 235-488 limits assumed): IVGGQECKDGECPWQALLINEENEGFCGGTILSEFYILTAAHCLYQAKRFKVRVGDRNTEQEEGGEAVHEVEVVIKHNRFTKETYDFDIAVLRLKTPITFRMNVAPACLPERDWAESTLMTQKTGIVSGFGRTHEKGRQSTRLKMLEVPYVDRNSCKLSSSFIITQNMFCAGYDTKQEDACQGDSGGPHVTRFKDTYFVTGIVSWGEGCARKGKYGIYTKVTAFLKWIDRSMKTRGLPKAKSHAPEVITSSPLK

[20] = Fraction unbound in Sprague-Dawley rat plasma; format: ADME, cell-free
Coagulation factor IX = Coagulation factor IX (Homo sapiens, UniProt P00740); assay: Binding affinity to human coagulation factor 9a assessed as inhibition constant using Methylsulfonyl-D-cyclohexylglycyl-glycylarginine 7-amino-4-methylcoumarin as substrate measured upto 120 mins by spectrofluorometric analysis
Sequence of Coagulation factor IX (P00740 47-191 limits assumed): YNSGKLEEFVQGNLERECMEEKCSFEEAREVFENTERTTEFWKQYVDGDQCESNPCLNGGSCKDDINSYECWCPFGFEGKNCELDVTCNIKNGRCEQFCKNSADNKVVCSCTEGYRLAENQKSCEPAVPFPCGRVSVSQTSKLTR
Sequence of Coagulation factor IX (P00740 227-461 limits assumed): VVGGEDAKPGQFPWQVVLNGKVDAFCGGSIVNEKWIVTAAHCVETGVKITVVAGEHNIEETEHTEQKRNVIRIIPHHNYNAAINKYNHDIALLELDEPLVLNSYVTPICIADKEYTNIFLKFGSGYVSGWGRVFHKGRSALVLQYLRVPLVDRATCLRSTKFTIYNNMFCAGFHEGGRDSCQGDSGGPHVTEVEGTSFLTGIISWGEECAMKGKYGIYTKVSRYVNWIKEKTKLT

[21] = Clearance in Sprague-Dawley rat at 1.04 mg/kg, po or 0.52 mg/kg, iv; format: ADME, organism-based; settings: in vivo
[22] = AUC in Sprague-Dawley rat at 1.04 mg/kg, po; format: ADME, organism-based; set-up: dose 1.04 mg/kg; settings: in vivo
[23] = Aqueous solubility of the compound at pH 6.5; format: physicochemical; settings: aqueous medium
Plasminogen = Plasminogen (Homo sapiens, UniProt P00747); assay: Binding affinity to human plasmin assessed as inhibition constant using H-D-Valyl-L-leucyl-L-lysine p-Nitroaniline as substrate measured upto 120 mins by spectrophotometric analysis
Sequence of Plasminogen (P00747 97-580 limits assumed): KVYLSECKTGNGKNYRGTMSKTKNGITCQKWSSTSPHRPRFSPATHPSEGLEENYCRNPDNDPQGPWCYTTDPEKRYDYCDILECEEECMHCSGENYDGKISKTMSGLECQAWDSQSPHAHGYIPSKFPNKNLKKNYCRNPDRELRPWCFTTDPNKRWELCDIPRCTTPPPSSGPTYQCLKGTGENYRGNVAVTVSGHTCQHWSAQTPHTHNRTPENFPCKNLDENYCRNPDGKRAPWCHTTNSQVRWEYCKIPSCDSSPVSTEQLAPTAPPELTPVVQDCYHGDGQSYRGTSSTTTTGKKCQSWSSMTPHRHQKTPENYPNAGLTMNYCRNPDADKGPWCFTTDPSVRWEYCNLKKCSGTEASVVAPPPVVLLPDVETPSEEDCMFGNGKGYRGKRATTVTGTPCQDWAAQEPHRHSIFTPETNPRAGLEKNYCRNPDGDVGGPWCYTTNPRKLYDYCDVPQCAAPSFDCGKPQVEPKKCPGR
Sequence of Plasminogen (P00747 581-810 limits assumed): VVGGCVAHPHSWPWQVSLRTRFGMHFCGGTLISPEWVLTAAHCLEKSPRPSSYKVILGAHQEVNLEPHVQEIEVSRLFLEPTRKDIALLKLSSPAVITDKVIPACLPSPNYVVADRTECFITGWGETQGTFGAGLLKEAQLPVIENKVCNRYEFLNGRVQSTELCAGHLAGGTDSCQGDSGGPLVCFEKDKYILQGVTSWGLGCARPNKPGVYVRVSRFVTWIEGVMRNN

[24] = Protein binding in cynomolgus monkey plasma; format: ADME, cell-free, Macaca fascicularis; settings: read-out: PPB (converted)
Homo sapiens [25] = species: Homo sapiens; assay: Inhibition of Phosphodiesterase (unknown origin) at 16 to 94 ug/ml; settings: dose 16-94 µg/ml
[26] = AUC in cynomolgus monkey at 1.50 mg/kg, po; format: ADME, organism-based, Macaca fascicularis; set-up: dose 1.5 mg/kg; settings: in vivo, 1.5 mg/kg
[27] = molecular target: Vitamin K-dependent protein C (Homo sapiens, UniProt P04070); assay: Binding affinity to human activated protein C assessed as inhibition constant using L-Pyroglutamyl-L-prolyl-L-arginine p-Nitroaniline as substrate measured upto 120 mins by spectrophotometric analysis
Sequence of Vitamin K-dependent protein C (P04070 43-197 limits assumed): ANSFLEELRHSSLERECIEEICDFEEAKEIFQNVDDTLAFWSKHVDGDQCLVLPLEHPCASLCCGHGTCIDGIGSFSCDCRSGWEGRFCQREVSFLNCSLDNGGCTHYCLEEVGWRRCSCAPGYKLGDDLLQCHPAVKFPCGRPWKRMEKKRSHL
Sequence of Vitamin K-dependent protein C (P04070 212-461 limits assumed): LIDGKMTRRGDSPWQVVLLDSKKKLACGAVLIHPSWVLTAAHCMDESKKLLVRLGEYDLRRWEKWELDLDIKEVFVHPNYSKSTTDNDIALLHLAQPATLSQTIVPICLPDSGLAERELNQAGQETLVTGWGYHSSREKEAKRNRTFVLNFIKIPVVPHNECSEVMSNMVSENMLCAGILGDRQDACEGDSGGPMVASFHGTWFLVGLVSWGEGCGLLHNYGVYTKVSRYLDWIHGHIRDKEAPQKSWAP

[28] = Aqueous solubility of the compound at pH 1.0; format: physicochemical; settings: aqueous medium
[29] = Clearance in cynomolgus monkey at 1.50 mg/kg, po or 0.50 mg/kg, iv; format: ADME, organism-based, Macaca fascicularis; settings: in vivo, dose 1.5 mg/kg
[30] = Fraction unbound in human plasma; format: ADME, cell-free
[31] = molecular target: Acetylcholinesterase (Homo sapiens) (UniProt P22303); assay: Inhibition of acetylcholinesterase (unknown origin) at 16 to 94 ug/ml; settings: dose 16-94 µg/ml
Sequence of Acetylcholinesterase (Homo sapiens) (P22303 whole entry): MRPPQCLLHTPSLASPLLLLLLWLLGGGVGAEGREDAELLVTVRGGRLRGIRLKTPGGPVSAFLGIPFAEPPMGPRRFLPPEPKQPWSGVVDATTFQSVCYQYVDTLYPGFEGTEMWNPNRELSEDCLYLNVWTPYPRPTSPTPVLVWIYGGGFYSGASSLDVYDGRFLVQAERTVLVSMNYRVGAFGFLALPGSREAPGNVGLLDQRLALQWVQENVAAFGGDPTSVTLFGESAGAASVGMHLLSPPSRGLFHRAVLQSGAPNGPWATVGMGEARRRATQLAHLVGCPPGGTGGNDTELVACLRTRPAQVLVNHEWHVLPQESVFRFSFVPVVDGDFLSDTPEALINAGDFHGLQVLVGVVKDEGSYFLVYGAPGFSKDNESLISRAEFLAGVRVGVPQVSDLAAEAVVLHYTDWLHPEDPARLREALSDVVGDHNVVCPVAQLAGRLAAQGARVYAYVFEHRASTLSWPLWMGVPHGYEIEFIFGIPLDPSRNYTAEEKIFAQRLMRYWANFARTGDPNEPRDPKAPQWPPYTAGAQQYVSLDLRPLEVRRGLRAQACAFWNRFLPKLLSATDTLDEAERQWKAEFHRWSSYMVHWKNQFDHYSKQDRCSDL

Coagulation factor XII = Coagulation factor XII (Homo sapiens, UniProt P00748); assay: Binding affinity to human coagulation factor 12a assessed as inhibition constant using H-D-Cyclohexylalanyl-glycyl-arginyl p-Nitroaniline as substrate measured upto 120 mins by spectrophotometric analysis
[32] = Half life in Sprague-Dawley rat at 1.04 mg/kg, po or 0.52 mg/kg, iv; format: ADME, organism-based; settings: in vivo
Cathepsin G = Cathepsin G (Homo sapiens, UniProt P08311); assay: Binding affinity to human neutrophil cathepsin G assessed as inhibition constant using Succinyl-L-alanyl-L-alanyl-L-prolyl-Lphenylalanine p-Nitroaniline as substrate measured upto 120 mins by spectrophotometric analysis
Sequence of Cathepsin G (P08311 whole entry): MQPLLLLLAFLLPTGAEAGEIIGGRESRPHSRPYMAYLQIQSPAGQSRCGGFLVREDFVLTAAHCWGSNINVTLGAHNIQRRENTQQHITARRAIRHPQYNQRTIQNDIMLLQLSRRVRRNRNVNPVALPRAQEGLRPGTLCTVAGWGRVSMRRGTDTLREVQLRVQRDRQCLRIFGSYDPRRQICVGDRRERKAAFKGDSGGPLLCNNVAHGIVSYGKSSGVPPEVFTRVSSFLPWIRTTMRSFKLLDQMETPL

Neutrophil elastase = Neutrophil elastase (Homo sapiens, UniProt P08246); assay: Binding affinity to human neutrophil elastase assessed as inhibition constant using Methoxysuccinyl-L-alanyl-L-alanyl-L-prolylL-valine p-Nitroaniline as substrate measured upto 120 mins by spectrophotometric analysis
Homo sapiens [33] = species: Homo sapiens; assay: Inhibition of Monoamine oxidase (unknown origin) at 16 to 94 ug/ml; settings: dose 16-94 µg/ml
[34] = Metabolic stability in cynomolgus monkey liver microsomes assessed as half life; format: ADME, Macaca fascicularis, Microsome; set-up: dose or concentration left out as unconfirmed
[35] = Oral bioavailability in Sprague-Dawley rat at 1.04 mg/kg; format: ADME, organism-based; settings: in vivo
Chymotrypsin = Chymotrypsin (Homo sapiens, UniProt Q99895+P17538+P40313+Q6GPI1); assay: Binding affinity to human chymotrypsin assessed as inhibition constant using 3-Carbomethoxypropionyl-L-arginyl-Lprolyl-L-tyrosine p-Nitroaniline as substrate measured upto 120 mins by spectrophotometric analysis; format: protein assay
[36] = Volume of distribution at steady state in Sprague-Dawley rat at 1.04 mg/kg, po or 0.52 mg/kg, iv; format: ADME, organism-based; settings: in vivo, read-out: Vdss
Kallikrein-1 = Kallikrein-1 (Homo sapiens, UniProt P06870); assay: Binding affinity to human tissue kallikrein-1 assessed as inhibition constant using H-D-Valyl-L-leucyl-L-arginine 7-amino-4-trifluoromethylcoumarin as substrate measured upto 120 mins by spectrofluorometric analysis; format: tissue-based
Sequence of Kallikrein-1 (P06870 whole entry): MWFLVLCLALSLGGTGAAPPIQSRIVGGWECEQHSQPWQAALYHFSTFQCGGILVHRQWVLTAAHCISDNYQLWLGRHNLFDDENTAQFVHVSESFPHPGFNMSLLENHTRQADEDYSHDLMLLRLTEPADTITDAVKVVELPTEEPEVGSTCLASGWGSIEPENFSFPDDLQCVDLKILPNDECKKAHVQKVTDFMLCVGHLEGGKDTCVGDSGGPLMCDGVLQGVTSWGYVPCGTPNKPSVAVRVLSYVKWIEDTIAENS

COC(=O)Nc1ccc2c(c1)NC(=O)[C@H](C)CCC[C@H](N1CCC(c3c(F)ccc(Cl)c3F)=CC1=O)c1cc-2ccn1
EC50 (Oryctolagus cuniculus): 375 nM

C[C@@H]1CCC[C@H](N2CCC(c3cc(Cl)ccc3-n3ccnn3)=CC2=O)c2cc(ccn2)-c2c(cnn2CC(F)F)NC1=O
Ki (Coagulation factor XI): 11 nM | EC1.5 (Plasma): 1.54 µM | half-life [1]: 1.27 h

C[C@@H]1CCC[C@H](N2CCC(c3cc(Cl)ccc3-n3ccnn3)=CC2=O)c2cc(ccn2)-c2c(cnn2C(F)F)NC1=O
Papp A→B [2]: < 1.5 ×10⁻⁶ cm/s | half-life [3]: > 2 h | bioavailability [4]: 7% | fraction unbound [5]: 0.249 | half-life [6]: 0.5 h | clearance [7]: 42 mL/min/kg | Vd [8]: 1.2 L/kg | EC1.5 (Plasma): 0.45 µM | AUC [9]: 0.068 µM·h | half-life [1]: 1.67 h

C[C@@H]1CCC[C@H](N2CCC(c3cc(Cl)ccc3-n3cc(Cl)nn3)=CC2=O)c2cc(ccn2)-c2c(cnn2C(F)F)NC1=O
clearance [10]: 17 mL/min/kg | half-life [3]: > 2 h | AUC [11]: 0.3 µM·h | Vd [12]: 1.4 L/kg | fraction unbound [5]: 0.06 | bioavailability [13]: 18% | Ki (Coagulation factor XI): 0.07 nM | EC1.5 (Plasma): 0.39 µM | half-life [1]: > 2 h | half-life [14]: 1.2 h

C[C@@H]1CCC[C@H](n2cnc(-c3cc(Cl)ccc3-n3cc(Cl)nn3)cc2=O)c2cc(ccn2)-c2c(cnn2C(F)F)NC1=O [MILVEXIAN]
Vd [15]: 2.2 L/kg | Ki (Trypsin): 720 nM | bioavailability [16]: 32% | Ki (Chymase): > 13000 nM | half-life [17]: 2.7 h | Ki [18]: 2300 nM | half-life [3]: > 2 h | Ki [19]: 3900 nM | Ki (Coagulation factor VII): 1200 nM | Ki (Myeloblastin): > 12000 nM | fraction unbound [5]: 0.029 | Ki (Coagulation factor X): > 13000 nM | fraction unbound [20]: 0.029 | Ki (Coagulation factor IX): > 27000 nM | clearance [21]: 7.1 mL/min/kg | AUC [22]: 0.7 µM·h | solubility [23]: 6 µg/mL (≈ 9.58 µM) | Ki (Plasminogen): 2650 nM | fraction unbound [24]: 0.109 | inhibition (Homo sapiens [25]): inactive | AUC [26]: 1.22 µM·h | Ki [27]: > 21000 nM | solubility [28]: 8 µg/mL (≈ 12.8 µM) | clearance [29]: 10.3 mL/min/kg | fraction unbound [30]: 0.085 | inhibition [31]: inactive | Ki (Coagulation factor XII): > 3000 nM | half-life [32]: 1.4 h | Ki (Cathepsin G): > 20000 nM | Ki (Neutrophil elastase): > 8000 nM | inhibition (Homo sapiens [33]): inactive | half-life [34]: 1.38 h | bioavailability [35]: 18% | EC1.5 (Plasma): 0.5 µM | Ki (Chymotrypsin): 35 nM | half-life [1]: > 2 h | Vd [36]: 0.9 L/kg | Ki (Kallikrein-1): > 11000 nM

C[C@@H]1CCC[C@H](N2CCC(c3c(F)ccc(Cl)c3F)=CC2=O)c2cc(ccn2)-c2nn(C)cc2NC1=O
Ki (Coagulation factor XI): 171 nM

C[C@@H]1CCC[C@H](N2CCC(c3cc(Cl)ccc3-n3ccnn3)=CC2=O)c2cc(ccn2)-c2c(cnn2C2CC2)NC1=O
Ki (Coagulation factor XI): 1.1 nM | EC1.5 (Plasma): 0.49 µM | half-life [1]: 0.0833 h

C[C@@H]1CCC[C@H](n2cnc(-c3cc(Cl)ccc3-n3cc(Cl)nn3)cc2=O)c2cc(ccn2)-c2c(cnn2C)NC1=O
EC1.5 (Plasma): 0.3 µM | half-life [1]: 1.93 h

C[C@@H]1CCC[C@H](N2CCC(c3cc(Cl)ccc3-n3ccnn3)=CC2=O)c2cc(ccn2)-c2c(cnn2C)NC1=O
EC1.5 (Plasma): 0.36 µM | half-life [1]: 1.13 h
